According to patent publication US10925876B2, “Methods for using triazolo-pyrazinyl soluble guanylate cyclase activators in fibrotic disorders” (Merck Sharp & Dohme Corp., priority 2016, dated 2021):

Tests used:
sGC α1/β1 heterodimer = target: T1, sGC α1/β1 heterodimer (Homo sapiens, UniProt Q02108+Q02153); test: Cell-Based sGC Functional Assay (CASA Assay), cGMP generation in CHO-K1/sGC cells;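 further: reference Compound A is a published heme-dependent sGC activator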; details: maximum cGMP production of Compound A set to 100% activation, read-out: % Act. (percent activation relative to Compound A)
T1 construct: expressed in transfected cells
T1 sequence (Q02108 1-690): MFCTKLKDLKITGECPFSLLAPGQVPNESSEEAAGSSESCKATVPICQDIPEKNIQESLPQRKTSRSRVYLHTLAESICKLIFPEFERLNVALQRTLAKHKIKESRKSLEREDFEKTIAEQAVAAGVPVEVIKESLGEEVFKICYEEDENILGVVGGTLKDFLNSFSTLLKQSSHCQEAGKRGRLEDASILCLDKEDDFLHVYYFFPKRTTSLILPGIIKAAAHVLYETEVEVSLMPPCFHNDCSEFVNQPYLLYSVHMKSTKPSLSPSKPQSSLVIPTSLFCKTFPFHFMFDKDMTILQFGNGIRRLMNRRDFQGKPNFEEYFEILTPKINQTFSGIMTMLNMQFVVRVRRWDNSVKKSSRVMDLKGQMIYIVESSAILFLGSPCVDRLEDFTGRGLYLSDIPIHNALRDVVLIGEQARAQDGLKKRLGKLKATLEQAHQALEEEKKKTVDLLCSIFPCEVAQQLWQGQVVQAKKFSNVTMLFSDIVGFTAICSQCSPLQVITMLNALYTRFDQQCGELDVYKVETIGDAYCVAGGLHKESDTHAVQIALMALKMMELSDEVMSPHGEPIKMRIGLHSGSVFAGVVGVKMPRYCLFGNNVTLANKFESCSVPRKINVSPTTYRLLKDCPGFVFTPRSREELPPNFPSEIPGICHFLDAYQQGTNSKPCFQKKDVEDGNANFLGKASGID
T1 sequence (Q02153 1-619): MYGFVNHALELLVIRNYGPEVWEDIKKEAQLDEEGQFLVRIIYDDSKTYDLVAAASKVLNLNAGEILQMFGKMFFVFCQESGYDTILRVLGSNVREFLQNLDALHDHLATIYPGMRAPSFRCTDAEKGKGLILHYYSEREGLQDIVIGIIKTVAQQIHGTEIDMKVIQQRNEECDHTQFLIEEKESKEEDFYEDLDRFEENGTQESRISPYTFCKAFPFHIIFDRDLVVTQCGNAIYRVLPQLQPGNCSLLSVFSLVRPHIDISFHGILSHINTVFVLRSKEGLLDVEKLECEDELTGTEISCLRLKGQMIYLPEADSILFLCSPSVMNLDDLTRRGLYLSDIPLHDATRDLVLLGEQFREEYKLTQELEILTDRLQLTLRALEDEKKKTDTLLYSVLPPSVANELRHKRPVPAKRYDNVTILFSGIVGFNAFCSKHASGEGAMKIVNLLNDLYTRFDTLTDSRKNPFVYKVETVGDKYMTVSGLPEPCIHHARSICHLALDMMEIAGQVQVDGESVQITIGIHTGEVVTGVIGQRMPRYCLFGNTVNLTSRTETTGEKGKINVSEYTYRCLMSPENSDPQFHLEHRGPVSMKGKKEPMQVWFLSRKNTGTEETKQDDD
Procedure, shortened: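 Intracellular cGMP quantified by HTRF competition after 1 h, 37 °C compound exposure, with or without 1 μM DETA-NO, in stable CHO-K1/sGC α1/β1 cells (4×10^5/mL; buffer with 0.5 mM IBMX, 5 mM MgCl2, 10 mM HEPES, 0.05% BSA; 2.5% DMSO). Activation normalized to reference Compound A maximum; 4P fit.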

[1] = tested on: Spontaneously hypertensive rats (SHR); test: Acute Efficacy in Spontaneously Hypertensive Rats (SHR), telemetry blood pressure; format: in vivo, rat; details: single oral gavage
Text: Spontaneously hypertensive rats (SHR, male, Charles River) were implanted with DSI TA11PA-C40 telemetry device (Data Sciences, Inc., St. Paul, Minn.) under isoflurane or ketamine/metomidine anesthesia. The telemetry unit catheter was inserted into the descending aorta via the femoral artery and the telemetry device was implanted subcutaneously in the left flank area. Animals were allowed to recover from surgery for 14 days before the start of any studies. Blood pressure, heart rate, and activity signals from conscious, freely moving rats were recorded continuously for 30 seconds every 10 minutes. On the day prior to administration of compound, a single oral dose of vehicle (10% transcutol/20% Cremophor/70% water) was administered to all animals to establish baseline control data. The blood pressure lowering efficacy of compound (PO) or vehicle was evaluated following a single oral gavage. Data were collected as hourly averages, and changes in blood pressure were calculated by subtracting control baseline data on an hourly basis. Animals were maintained on normal diet with a 12 hour light-dark cycle.
Maximum peak decreases of systolic blood pressure (SBP) in SHR at a particular P.O. dose (mpk milligrams per kilogram) for the following representative compounds are provided. Category A=SBP in SHRs <20 mmHg; Category B=SBP in SHRs 20-40 mmHg; Category C=SBP in SHRs >40 mmHg.

SMILES	Emax (sGC α1/β1 heterodimer) [%]	Maximum peak decrease of systolic blood pressure (SBP) in SHR, Cat. ([1]; P.O. 1 mpk)	Maximum peak decrease of systolic blood pressure (SBP) in SHR, Cat. ([1]; P.O. 0.3 mpk)	Maximum peak decrease of systolic blood pressure (SBP) in SHR, Cat. ([1]; P.O. 3 mpk)	Maximum peak decrease of systolic blood pressure (SBP) in SHR, Cat. ([1]; P.O. 2 mpk)
C[C@@]1(c2ccc(F)cc2)C(=O)Nc2nc(-c3cn4ncnc4c(CCC(F)(F)C(F)(F)F)n3)nc(C(N)=O)c21 [Example 177A, 5-(4-Fluorophenyl)-5-methyl-6-oxo-2-(8-(3,3,4,4,4-pentafluorobutyl)-[1,2,4]triazolo[1,5-a]pyrazin-6-yl)-6,7-dihydro-5H-pyrrolo[2,3-d]pyrimidine-4-carboxamide]	168	C (Category C=SBP in SHRs >40 mmHg)	–	–	–
CC1(c2ccc(C#N)cn2)C(=O)Nc2nc(-c3cn4ncnc4c(CCC(F)(F)C(F)(F)F)n3)nc(N)c21 (centres unmarked) [Example 18A]	75	–	C (Category C=SBP in SHRs >40 mmHg)	–	–
CC1(c2ccc(Cl)cc2)C(=O)Nc2nc(-c3cn4ncnc4c(CCCC(F)(F)F)n3)nc(O)c21 (centres unmarked) [Example 142A, 5-(4-chlorophenyl)-4-hydroxy-5-methyl-2-(8-(4,4,4-trifluorobutyl)-[1,2,4]triazolo[1,5-a]pyrazin-6-yl)-5H-pyrrolo[2,3-d]pyrimidin-6(7H)-one]	137	–	B (Category B=SBP in SHRs 20-40 mmHg)	–	–
C[C@@]1(c2ccc(F)cc2)C(=O)Nc2nc(-c3cn4ncnc4c(CCC(F)(F)C(F)(F)F)n3)nc(N)c21 [Example 1A, (S)-4-Amino-5-(4-fluorophenyl)-5-methyl-2-(8-(3,3,4,4,4-pentafluorobutyl)-[1,2,4]triazolo[1,5-a]pyrazin-6-yl)-5H-pyrrolo[2,3-d]pyrimidin-6(7H)-one]	196	–	C (Category C=SBP in SHRs >40 mmHg)	–	–
CCCc1nc(-c2nc(O)c3c(n2)NC(=O)C3(C)c2ccc(Cl)c(F)c2)cn2ncnc12 (centres unmarked) [Example 166B, 5-(4-chloro-3-fluorophenyl)-4-hydroxy-5-methyl-2-(8-propyl-[1,2,4]triazolo[1,5-a]pyrazin-6-yl)-5H-pyrrolo[2,3-d]pyrimidin-6(7H)-one]	117	–	–	B (Category B=SBP in SHRs 20-40 mmHg)	–
Nc1nc(-c2cn3ncnc3c(CCCC(F)(F)F)n2)nc2c1C(c1ccc(Cl)c(F)c1)(C1CC1)C(=O)N2 (centres unmarked) [Example 33A, 4-amino-5-(4-chloro-3-fluorophenyl)-5-cyclopropyl-2-(8-(4,4,4-trifluorobutyl)-[1,2,4]triazolo[1,5-a]pyrazin-6-yl)-5H-pyrrolo[2,3-d]pyrimidin-6(7H)-one]	107	–	C (Category C=SBP in SHRs >40 mmHg)	–	–
CCCc1nc(-c2nc(N)c3c(n2)NC(=O)C3(c2ccc(C(F)(F)F)cn2)C2CC2)cn2ncnc12 (centres unmarked) [Example 56A, 4-amino-5-cyclopropyl-2-(8-propyl-[1,2,4]triazolo[1,5-a]pyrazin-6-yl)-5-(5-(trifluoromethyl)pyridin-2-yl)-5H-pyrrolo[2,3-d]pyrimidin-6(7H)-one]	81	–	–	B (Category B=SBP in SHRs 20-40 mmHg)	–
Nc1nc(-c2cn3ncnc3c(CCC(F)(F)C(F)(F)F)n2)nc2c1C(c1ccc(Cl)cn1)(C1CC1)C(=O)N2 (centres unmarked) [Example 7A, 4-amino-5-(5-chloropyridin-2-yl)-5-cyclopropyl-2-(8-(3,3,4,4,4-pentafluorobutyl)-[1,2,4]triazolo[1,5-a]pyrazin-6-yl)-5H-pyrrolo[2,3-d]pyrimidin-6(7H)-one]	185	–	B (Category B=SBP in SHRs 20-40 mmHg)	–	–
CC1(c2ccc(Cl)cn2)C(=O)Nc2nc(-c3cn4ncnc4c(CCC(F)(F)C(F)(F)F)n3)nc(O)c21 (centres unmarked) [Example 120A, 5-(5-chloropyridin-2-yl)-4-hydroxy-5-methyl-2-(8-(3,3,4,4,4-pentafluorobutyl)-[1,2,4]triazolo[1,5-a]pyrazin-6-yl)-5H-pyrrolo[2,3-d]pyrimidin-6(7H)-one]	107	B (Category B=SBP in SHRs 20-40 mmHg)	–	–	–
CCCCc1nc(-c2nc(N)c3c(n2)NC(=O)C3(C)c2ccc(F)cn2)cn2ncnc12 (centres unmarked) [Example 61B, 4-amino-2-(8-butyl-[1,2,4]triazolo[1,5-a]pyrazin-6-yl)-5-(5-fluoropyridin-2-yl)-5-methyl-5H-pyrrolo[2,3-d]pyrimidin-6(7H)-one]	177	–	C (Category C=SBP in SHRs >40 mmHg)	–	–
CCCCc1nc(-c2nc(O)c3c(n2)NC(=O)C3(C)c2ccc(Cl)c(F)c2)cn2ncnc12 (centres unmarked) [Example 156B, 2-(8-butyl-[1,2,4]triazolo[1,5-a]pyrazin-6-yl)-5-(4-chloro-3-fluorophenyl)-4-hydroxy-5-methyl-5H-pyrrolo[2,3-d]pyrimidin-6(7H)-one]	102	–	C (Category C=SBP in SHRs >40 mmHg)	–	–
CC(C)Cc1nc(-c2ncc3c(n2)NC(=O)[C@@]3(C)c2ccc(F)cc2)cn2ncnc12 [Example 173A, (S)-5-(4-fluorophenyl)-2-(8-isobutyl-[1,2,4]triazolo[1,5-a]pyrazin-6-yl)-5-methyl-5,7-dihydro-6H-pyrrolo[2,3-d]pyrimidin-6-one]	176	A (Category A=SBP in SHRs <20 mmHg)	–	–	–
Nc1nc(-c2cn3ncnc3c(CCC(F)(F)C(F)(F)F)n2)nc2c1C(c1nnc(C3CC3)o1)(C1CC1)C(=O)N2 (centres unmarked) [Example 107A, 4-amion-5-cyclopropyl-5-(5-cyclopropyl-1,3,4-oxadiazol-2-yl)-2-(8-(3,3,4,4,4-pentafluorobutyl)-[1,2,4]triazolo[1,5-a]pyrazin-6-yl)-5H-pyrrolo[2,3-d]pyrimidin-6(7H)-one]	76	–	–	C (Category C=SBP in SHRs >40 mmHg)	–
Cc1nc2c(CCC(F)(F)C(F)(F)F)nc(-c3nc(N)c4c(n3)NC(=O)[C@@]4(C)c3ccc(F)cc3)cn2n1 [Example 88B, (S)-4-amino-5-(4-fluorophenyl)-5-methyl-2-(2-methyl-8-(3,3,4,4,4-pentafluorobutyl)-[1,2,4]triazolo[1,5-a]pyrazin-6-yl)-5H-pyrrolo[2,3-d)pyrimidin-6(7H)-one]	137	C (Category C=SBP in SHRs >40 mmHg)	–	–	–
CCCc1nc(-c2nc(O)c3c(n2)NC(=O)C3(C)c2ccc(Cl)cc2)cn2ncnc12 (centres unmarked) [Example 164A, 5-(4-chlorophenyl)-4-hydroxy-5-methyl-2-(8-propyl-[1,2,4]triazolo[1,5-a]pyrazin-6-yl)-5H-pyrrolo[2,3-d]pyrimidin-6(7H)-one]	253	–	–	–	B (Category B=SBP in SHRs 20-40 mmHg)
Cc1nc2c(CCC(F)(F)C(F)(F)F)nc(-c3nc(N)c4c(n3)NC(=O)C4(C)c3nnc(C4CC4)o3)cn2n1 (centres unmarked) [Example 103A, 4-amino-5-(5-cyclopropyl-1,3,4-oxadiazol-2-yl)-5-methyl-2-(2-methyl-8-(3,3,4,4,4-pentafluorobutyl)-[1,2,4]triazolo[1,5-a]pyrazin-6-yl)-5H-pyrrolo[2,3-d]pyrimidin-6(7H)-one]	104	–	–	–	A (Category A=SBP in SHRs <20 mmHg)
